Data taken from ChEMBL document CHEMBL3885881, “DrugMatrix”.

Organism: Rattus norvegicus
Assay: DrugMatrix - Regimen: Daily Repeat
Type: toxicity, organism-based, Sprague-Dawley
Set-up: regimen Daily Repeat, gender Male, age 6-8 weeks
Details: in vivo, po, route oral GAVAGE, vehicle 100 % WATER; for ABSOLUTE BASOPHIL / ABSOLUTE EOSINOPHIL / ABSOLUTE LYMPHOCYTE / ABSOLUTE MONOCYTE / ABSOLUTE SEGMENTED NEUTROPHIL / BASOPHIL / EOSINOPHIL / ERYTHROCYTE COUNT / HEMATOCRIT / HEMOGLOBIN / LEUKOCYTE COUNT / LYMPHOCYTE / MEAN CORPUSCULAR HEMOGLOBIN / MEAN CORPUSCULAR HEMOGLOBIN CONCENTRATION / MEAN CORPUSCULAR VOLUME / MONOCYTE / NEUTROPHIL / NUCLEATED RED BLOOD CELLS / PLATELET COUNT: tissue Blood; for ALANINE AMINOTRANSFERASE / ALBUMIN / ALKALINE PHOSPHATASE / ASPARTATE AMINOTRANSFERASE / BLOOD UREA NITROGEN / CARBON DIOXIDE / CHLORIDE / CHOLESTEROL / CREATINE PHOSPHOKINASE / CREATININE / GLUCOSE / LACTATE DEHYDROGENASE / LIPASE / PHOSPHORUS / POTASSIUM / SODIUM / TOTAL BILIRUBIN / TOTAL PROTEIN / URIC ACID: tissue Plasma
[1] = 0 mg/kg, 72 h, dose level Control, time 3 day
[2] = 0 mg/kg, 120 h, dose level Control, time 5 day
[3] = 20 mg/kg, 72 h, dose level Low, time 3 day

Compound: CCCC(C)C1(CC)C(=O)NC(=O)NC1=O (centres undefined) [PENTOBARBITAL]
- ABSOLUTE BASOPHIL [1]: 0 CELLS/uL
- ABSOLUTE EOSINOPHIL [1]: 32.5 CELLS/uL
- ABSOLUTE LYMPHOCYTE [1]: 9305.83 CELLS/uL
- ABSOLUTE MONOCYTE [1]: 43.83 CELLS/uL
- ABSOLUTE SEGMENTED NEUTROPHIL [1]: 817.83 CELLS/uL
- BASOPHIL [1]: 0%
- EOSINOPHIL [1]: 0.33%
- ERYTHROCYTE COUNT [1]: 5.38 x10E6/uL
- HEMATOCRIT [1]: 33.63%
- HEMOGLOBIN [1]: 13.17 G/DL
- LEUKOCYTE COUNT [1]: 10.2 x10E3/uL
- LYMPHOCYTE [1]: 91.17%
- MEAN CORPUSCULAR HEMOGLOBIN [1]: 24.5 pg
- MEAN CORPUSCULAR HEMOGLOBIN CONCENTRATION [1]: 39.13 G/DL
- MEAN CORPUSCULAR VOLUME [1]: 62.53 fL
- MONOCYTE [1]: 0.5%
- NEUTROPHIL [1]: 8%
- NUCLEATED RED BLOOD CELLS [1]: 0.17 /100WBC
- PLATELET COUNT [1]: 858 x10E3/uL
- ALANINE AMINOTRANSFERASE [1]: 55.67 u/L
- ALBUMIN [1]: 4.07 G/DL
- ALKALINE PHOSPHATASE [1]: 337 u/L
- ASPARTATE AMINOTRANSFERASE [1]: 84 u/L
- BLOOD UREA NITROGEN [1]: 13.17 mg/dL
- CARBON DIOXIDE [1]: 34.17 mmol/L
- CHLORIDE [1]: 99.33 MEQ/L
- CHOLESTEROL [1]: 78.83 mg/dL
- CREATINE PHOSPHOKINASE [1]: 576.83 u/L
- CREATININE [1]: 0.17 mg/dL
- GLUCOSE [1]: 152.67 mg/dL
- LACTATE DEHYDROGENASE [1]: 147.83 u/L
- LIPASE [1]: 9.5 u/L
- PHOSPHORUS [1]: 10.78 mg/dL
- POTASSIUM [1]: 6.34 MEQ/L
- SODIUM [1]: 144.12 MEQ/L
- TOTAL BILIRUBIN [1]: 0.18 mg/dL
- TOTAL PROTEIN [1]: 6.08 G/DL
- URIC ACID [1]: 0.65 mg/dL
- ABSOLUTE BASOPHIL [2]: 0 CELLS/uL
- ABSOLUTE EOSINOPHIL [2]: 31.17 CELLS/uL
- ABSOLUTE LYMPHOCYTE [2]: 7918.33 CELLS/uL
- ABSOLUTE MONOCYTE [2]: 58.33 CELLS/uL
- ABSOLUTE SEGMENTED NEUTROPHIL [2]: 725.5 CELLS/uL
- BASOPHIL [2]: 0%
- EOSINOPHIL [2]: 0.33%
- ERYTHROCYTE COUNT [2]: 5.32 x10E6/uL
- HEMATOCRIT [2]: 33.53%
- HEMOGLOBIN [2]: 13.17 G/DL
- LEUKOCYTE COUNT [2]: 8.73 x10E3/uL
- LYMPHOCYTE [2]: 90.33%
- MEAN CORPUSCULAR HEMOGLOBIN [2]: 24.82 pg
- MEAN CORPUSCULAR HEMOGLOBIN CONCENTRATION [2]: 39.33 G/DL
- MEAN CORPUSCULAR VOLUME [2]: 63.12 fL
- MONOCYTE [2]: 0.67%
- NEUTROPHIL [2]: 8.67%
- NUCLEATED RED BLOOD CELLS [2]: 0 /100WBC
- PLATELET COUNT [2]: 1144.83 x10E3/uL
- ALANINE AMINOTRANSFERASE [2]: 60.5 u/L
- ALBUMIN [2]: 3.97 G/DL
- ALKALINE PHOSPHATASE [2]: 343.17 u/L
- ASPARTATE AMINOTRANSFERASE [2]: 80.83 u/L
- BLOOD UREA NITROGEN [2]: 15 mg/dL
- CARBON DIOXIDE [2]: 31 mmol/L
- CHLORIDE [2]: 99.75 MEQ/L
- CHOLESTEROL [2]: 71.5 mg/dL
- CREATINE PHOSPHOKINASE [2]: 237.17 u/L
- CREATININE [2]: 0.17 mg/dL
- GLUCOSE [2]: 137 mg/dL
- LACTATE DEHYDROGENASE [2]: 146.17 u/L
- LIPASE [2]: 11.5 u/L
- PHOSPHORUS [2]: 10.13 mg/dL
- POTASSIUM [2]: 6 MEQ/L
- SODIUM [2]: 145 MEQ/L
- TOTAL BILIRUBIN [2]: 0.13 mg/dL
- TOTAL PROTEIN [2]: 5.82 G/DL
- URIC ACID [2]: 0.62 mg/dL
- ABSOLUTE BASOPHIL [3]: 0 CELLS/uL
- ABSOLUTE EOSINOPHIL [3]: 0 CELLS/uL
- ABSOLUTE LYMPHOCYTE [3]: 9302.33 CELLS/uL
- ABSOLUTE MONOCYTE [3]: 108 CELLS/uL
- ABSOLUTE SEGMENTED NEUTROPHIL [3]: 989.67 CELLS/uL
- BASOPHIL [3]: 0%
- EOSINOPHIL [3]: 0%
- ERYTHROCYTE COUNT [3]: 5.3 x10E6/uL
- HEMATOCRIT [3]: 32.83%
- HEMOGLOBIN [3]: 12.6 G/DL
- LEUKOCYTE COUNT [3]: 10.4 x10E3/uL
- LYMPHOCYTE [3]: 88.33%
- MEAN CORPUSCULAR HEMOGLOBIN [3]: 23.77 pg
- MEAN CORPUSCULAR HEMOGLOBIN CONCENTRATION [3]: 38.37 G/DL
- MEAN CORPUSCULAR VOLUME [3]: 61.97 fL
- MONOCYTE [3]: 1.33%
- NEUTROPHIL [3]: 10.33%
- NUCLEATED RED BLOOD CELLS [3]: 0 /100WBC
- PLATELET COUNT [3]: 1066.67 x10E3/uL
- ALANINE AMINOTRANSFERASE [3]: 57.67 u/L
- ALBUMIN [3]: 3.9 G/DL
- ALKALINE PHOSPHATASE [3]: 334.33 u/L
- ASPARTATE AMINOTRANSFERASE [3]: 90.67 u/L
- BLOOD UREA NITROGEN [3]: 13.67 mg/dL
- CARBON DIOXIDE [3]: 35.33 mmol/L
- CHLORIDE [3]: 100 MEQ/L
- CHOLESTEROL [3]: 80.67 mg/dL
- CREATINE PHOSPHOKINASE [3]: 384.67 u/L
- CREATININE [3]: 0.14 mg/dL
- GLUCOSE [3]: 140 mg/dL
- LACTATE DEHYDROGENASE [3]: 137 u/L
- LIPASE [3]: 9 u/L
- PHOSPHORUS [3]: 11.23 mg/dL
- POTASSIUM [3]: 5.89 MEQ/L
- SODIUM [3]: 147.3 MEQ/L
- TOTAL BILIRUBIN [3]: 0.13 mg/dL
- TOTAL PROTEIN [3]: 5.67 G/DL
- URIC ACID [3]: 0.7 mg/dL
